In general, solubility refers to how much of the substance goes into solution per volume.

For one data set, the target named is T1, hGIPR (Homo sapiens, UniProt P48546).
T1 construct: expressed in transfected cells; host or cells: CHO CRE-luciferase reporter cells
T1 sequence (P48546 22-466): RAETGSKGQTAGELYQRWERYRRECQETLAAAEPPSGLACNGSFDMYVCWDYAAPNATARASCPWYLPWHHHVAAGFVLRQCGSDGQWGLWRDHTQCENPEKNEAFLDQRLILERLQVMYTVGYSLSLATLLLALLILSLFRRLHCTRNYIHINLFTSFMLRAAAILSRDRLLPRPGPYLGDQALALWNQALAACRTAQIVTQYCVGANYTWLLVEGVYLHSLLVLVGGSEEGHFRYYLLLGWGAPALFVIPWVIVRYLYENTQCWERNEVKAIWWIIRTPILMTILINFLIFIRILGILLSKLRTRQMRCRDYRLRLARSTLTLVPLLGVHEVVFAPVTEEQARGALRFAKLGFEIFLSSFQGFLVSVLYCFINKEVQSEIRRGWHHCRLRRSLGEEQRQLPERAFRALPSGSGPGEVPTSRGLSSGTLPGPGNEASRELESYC
Kind of data set: hGIPR CreLuc assay in 0.5% and 100% plasma (CHO CRE-luciferase reporter cells). The note with it: 0.5% human plasma, read-out: hGIPR 0.5% hP. The data set is classed as cell-based. Background: Reporter assays use an easily measured gene product as a stand-in for the process of interest.

A further data set concerns the target T2, hNPY2R (Homo sapiens, UniProt P49146).
T2 construct: expressed in transfected cells; host or cells: HEK-293 CRE-luciferase reporter cells
T2 sequence (P49146 1-381): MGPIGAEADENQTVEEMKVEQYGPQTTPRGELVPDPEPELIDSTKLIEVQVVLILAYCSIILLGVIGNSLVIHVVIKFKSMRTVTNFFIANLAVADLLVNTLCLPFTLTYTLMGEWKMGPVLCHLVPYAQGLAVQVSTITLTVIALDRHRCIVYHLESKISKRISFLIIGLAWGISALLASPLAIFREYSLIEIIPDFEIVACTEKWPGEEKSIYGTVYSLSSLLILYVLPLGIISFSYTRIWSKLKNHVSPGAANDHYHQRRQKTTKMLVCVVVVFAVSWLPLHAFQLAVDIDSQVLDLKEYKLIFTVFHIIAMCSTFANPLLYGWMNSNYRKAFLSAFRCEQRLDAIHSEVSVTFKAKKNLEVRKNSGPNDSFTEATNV
In words: hNPY2R CreLuc assay in 0.5% and 100% plasma (HEK-293 CRE-luciferase reporter cells). As to conditions: 100% human plasma, HEK-293 reporter cells, read-out: hNPY2R 100% hP. The data set is classed as cell-based.

Data set [1] in a line: Solubility in 0.1 M phosphate buffer at pH 7. As to conditions: 0.1 M phosphate buffer at pH 7, 10 mg/mL final peptide concentration, shaking 2 hours at room temperature, peptides as TFA-salts; measured sample pH 6.5-7.0. It is filed as physicochemical.

Consider `CC[C@H](C)[C@H](NC(=O)[C@H](CC(C)C)NC(=O)[C@H](Cc1c[nH]cn1)NC(=O)[C@H](CCCNC(=N)N)NC(=O)[C@@H](NC(=O)[C@H](Cc1ccccc1)NC(=O)[C@H](C)NC(=O)C(C)(C)NC(=O)[C@H](CCC(N)=O)NC(=O)[C@H](C)NC(=O)[C@H](CCC(N)=O)NC(=O)[C@H](CCCCN)NC(=O)[C@H](CCC(=O)O)NC(=O)[C@H](CC(C)C)NC(=O)C(C)(C)NC(=O)[C@@H](NC(=O)[C@H](CO)NC(=O)[C@H](Cc1ccc(O)cc1)NC(=O)[C@H](CC(=O)O)NC(=O)[C@H](CO)NC(=O)[C@@H](NC(=O)[C@H](Cc1ccccc1)NC(=O)[C@@H](NC(=O)CNC(=O)[C@H](CCC(=O)O)NC(=O)C(C)(C)NC(=O)[C@@H](N)Cc1ccc(O)cc1)[C@@H](C)O)[C@@H](C)O)[C@@H](C)CC)C(C)C)C(=O)N[C@@H](CC(N)=O)C(=O)N[C@@H](CCCCNC(=O)CCCCCNC(=O)CC[C@H](NC(=O)CC[C@H](NC(=O)CC[C@H](NC(=O)CC[C@H](NC(=O)CC[C@H](NC(=O)CC[C@H](NC(=O)CCCCCCCCCCCCCCCCCCC(=O)O)C(=O)O)C(=O)O)C(=O)O)C(=O)O)C(=O)O)C(=O)O)C(=O)NC(C)(C)C(=O)N[C@H](C(=O)N[C@@H](CCCNC(=N)N)C(=O)N[C@@H](CCC(N)=O)C(=O)N[C@@H](CCCNC(=N)N)C(=O)N[C@@H](Cc1ccc(O)cc1)C(N)=O)[C@@H](C)O` [Compound 157, Y-Aib-E-G-T-F-T-S-D-Y-S-I-Aib-L-E-K-Q-A-Q-Aib-A-F-V-R-H-L-I-N-K(1,3)-Aib-T-R-Q-R-Y-NH2.C20DA-gGlu-gGlu-gGlu-gGlu-gGlu-gGlu-AHX(1,2)], for which the EC50 amounted to 0.2 nM at hGIPR and 135 nM on hNPY2R. The solubility at 2 h in data set [1] was 5200 µg/mL.

On to `CC[C@H](C)[C@H](NC(=O)[C@H](CC(C)C)NC(=O)[C@H](Cc1c[nH]cn1)NC(=O)[C@H](CCCNC(=N)N)NC(=O)[C@@H](NC(=O)[C@H](Cc1ccccc1)NC(=O)[C@H](C)NC(=O)C(C)(C)NC(=O)[C@H](CCC(=O)O)NC(=O)[C@H](C)NC(=O)[C@H](CCC(N)=O)NC(=O)[C@H](CCCCN)NC(=O)[C@H](CCC(=O)O)NC(=O)[C@H](CC(C)C)NC(=O)C(C)(C)NC(=O)[C@@H](NC(=O)[C@H](CO)NC(=O)[C@H](Cc1ccc(O)cc1)NC(=O)[C@H](CC(=O)O)NC(=O)[C@H](CO)NC(=O)[C@@H](NC(=O)[C@H](Cc1ccccc1)NC(=O)[C@@H](NC(=O)CNC(=O)[C@H](CCC(=O)O)NC(=O)C(C)(C)NC(=O)[C@@H](N)Cc1ccc(O)cc1)[C@@H](C)O)[C@@H](C)O)[C@@H](C)CC)C(C)C)C(=O)N[C@@H](CC(N)=O)C(=O)N[C@@H](CCCCNC(=O)[C@@H](N)CCCCNC(=O)CC[C@H](NC(=O)CC[C@H](NC(=O)COCCOCCNC(=O)CC[C@H](NC(=O)CC[C@H](NC(=O)CC[C@H](NC(=O)CCCCCCCCCCCCCCCCCCC(=O)O)C(=O)O)C(=O)O)C(=O)O)C(=O)O)C(=O)O)C(=O)NC(C)(C)C(=O)N[C@H](C(=O)N[C@@H](CCCNC(=N)N)C(=O)N[C@@H](CCC(N)=O)C(=O)N[C@@H](CCCNC(=N)N)C(=O)N[C@@H](Cc1ccc(O)cc1)C(N)=O)[C@@H](C)O` [Compound 162, Y-Aib-E-G-T-F-T-S-D-Y-S-I-Aib-L-E-K-Q-A-E-Aib-A-F-V-R-H-L-I-N-K(1,3)-Aib-T-R-Q-R-Y-NH2.C20DA-gGlu-gGlu-gGlu-OEG-gGlu-gGlu-eLys(1,2)], for which the EC50 at hGIPR worked out at 0.7 nM; on hNPY2R, 43.8 nM. The solubility at 2 h in data set [1] was determined as 8700 µg/mL.

These data come from patent publication US20250382344A1, “Soluble GLP1/GIP/NPY2 Receptor Triple Agonists” (Boehringer Ingelheim International GmH, priority 2024, published 2025).
